According to patent publication US20090143279A1 (priority 2007, published 2009):
Where two headings read alike, the source gives them in different places.

Legend:
[1] = test system: mitochondrial membrane potential; type: cell-based, mouse
reactive oxygen species = type: cell-based, mouse
OXPHOS gene expression = type: cell-based, mouse
nuOXPHOS transcripts = type: cell-based, mouse
mtOXPHOS transcripts = type: cell-based, mouse
cytochrome c = type: cell-based, mouse
[2] = test system: cellular dehydrogenase activity
[3] = composite Z-score vs DMSO wells, Conc 20 μM
[4] = composite Z-score vs mock-treated (DMSO) wells, Conc 20 μM
[5] = 20 μM, composite Z-score vs DMSO
[6] = composite Z-score vs DMSO, Conc 20 μM
[7] = normalized composite Z-score vs mock-treated (DMSO) wells, Conc 20 μM
[8] = Conc 20 μM, normalized score vs mock-treated (DMSO) wells
[9] = composite Z-score vs mock-treated (DMSO) wells, concentration of each compound in μM

cytochrome c, sequence (P62897 whole entry): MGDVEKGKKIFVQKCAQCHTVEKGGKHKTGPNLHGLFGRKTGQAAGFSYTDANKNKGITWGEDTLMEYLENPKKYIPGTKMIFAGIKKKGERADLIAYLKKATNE

## CNCCc1ccccn1 [betahistine]
[1]; [3]
  ΔΨm: 0.125
Reactive oxygen species; [3]
  ROS: −0.176
OXPHOS gene expression; [3]
  GE-HTS: −0.284
nuOXPHOS transcripts; [3]
  nucOX: −0.008
mtOXPHOS transcripts; [3]
  mitoOX: −0.718
Cytochrome c
  cyt c: 0.296
Cytochrome c; [3]
  cyt c: 0.386
C2C12 myotubes; [3]
  Viability: 1.068
[2]; [3]
  MTT: 0.861

## CC1(C)OC(=O)C=CC2(C)C1CC(O)C1(C)C2CCC2(C)C(c3ccoc3)OC(=O)C3OC321 (centres unmarked) [obacunol]
[1]; [4]
  ΔΨm: 0.464
Reactive oxygen species; [4]
  ROS: −0.134
OXPHOS gene expression; [4]
  GE-HTS: −0.906
nuOXPHOS transcripts; [4]
  nucOX: −0.927
mtOXPHOS transcripts; [4]
  mitoOX: −0.734
Cytochrome c; [4]
  cyt c: 0.859
C2C12 myotubes; [4]
  Viability: 2.016
[2]; [4]
  MTT: −0.982

## CC(C)(C)NCC(O)c1ccccc1Cl (centres unmarked) [tulobuterol]
[1]; [5]
  ΔΨm: −1.186
Reactive oxygen species; [5]
  ROS: 0.569
OXPHOS gene expression; [5]
  GE-HTS: −0.101
nuOXPHOS transcripts; [5]
  nucOX: −0.257
mtOXPHOS transcripts; [5]
  mitoOX: 0.258
Cytochrome c; [5]
  cyt c: 0.326
C2C12 myotubes; [5]
  Viability: −0.239
[2]; [5]
  MTT: −0.706

## NCC[C@H](O)C(=O)N[C@@H]1C[C@H](N)[C@@H](O[C@H]2O[C@H](CN)[C@@H](O)[C@H](O)[C@H]2O)[C@H](O)[C@H]1O[C@H]1O[C@H](CO)[C@@H](O)[C@H](N)[C@H]1O [amikacin]
[1]; [6]
  ΔΨm: −0.116
Reactive oxygen species; [6]
  ROS: 0.301
OXPHOS gene expression; [6]
  GE-HTS: 0.332
nuOXPHOS transcripts; [6]
  nucOX: 0.268
mtOXPHOS transcripts; [6]
  mitoOX: 0.338
Cytochrome c; [6]
  cyt c: −0.090
C2C12 myotubes; [6]
  Viability: 0.034
[2]; [6]
  MTT: −1.688

## COC(=O)[C@@H]1[C@H]2C[C@H]3c4[nH]c5ccccc5c4CCN3C[C@@H]2CC[C@@H]1O [yohimbine]
[1]
  ΔΨm: −1.197
Reactive oxygen species
  ROS: 0.159
OXPHOS gene expression
  GE-HTS: −0.041
nuOXPHOS transcripts
  nucOX: 0.169
mtOXPHOS transcripts
  mitoOX: −0.471
Cytochrome c
  cyt c: 0.699
C2C12 myotubes
  Viability: −0.860
[2]
  MTT: −1.915

## CC=Cc1ccc2c(c1)OCO2 [isosafrole]
[1]; [4]
  ΔΨm: −1.060
Reactive oxygen species; [4]
  ROS: 0.397
OXPHOS gene expression; [4]
  GE-HTS: −1.283
nuOXPHOS transcripts; [4]
  nucOX: −0.860
mtOXPHOS transcripts; [4]
  mitoOX: −1.917
Cytochrome c; [4]
  cyt c: 0.462
C2C12 myotubes; [4]
  Viability: −0.798
[2]; [4]
  MTT: −0.913

## COC(=O)C1(C)CCCC2(C)c3ccc(C(C)C)cc3C(=O)CC12 (centres unmarked) [7-oxocallitrisic acid, methyl ester]
[1]; [6]
  ΔΨm: 2.079
Reactive oxygen species; [6]
  ROS: 0.162
OXPHOS gene expression; [6]
  GE-HTS: −0.876
nuOXPHOS transcripts; [6]
  nucOX: −0.457
mtOXPHOS transcripts; [6]
  mitoOX: −1.555
Cytochrome c; [6]
  cyt c: −0.923
C2C12 myotubes; [6]
  Viability: 1.266
[2]; [6]
  MTT: 0.111

## CC(C)=CCCC1(C)C=Cc2c(O)c3c(c(CC=C(C)C)c2O1)OC12C(CC4CC1C(C)(C)OC2(C/C=C(/C)C(=O)O)C4O)C3=O (centres unmarked) [tetrahydrogambogic acid]
[1]; [4]
  ΔΨm: −1.438
Reactive oxygen species; [4]
  ROS: 0.460
OXPHOS gene expression; [4]
  GE-HTS: −0.478
nuOXPHOS transcripts; [4]
  nucOX: −0.409
mtOXPHOS transcripts; [4]
  mitoOX: −0.490
Cytochrome c; [4]
  cyt c: −0.932
C2C12 myotubes; [4]
  Viability: 1.434
[2]; [4]
  MTT: −1.090

## NC(=O)c1ccc([N+](=O)[O-])cc1Cl [aklomide]
[1]; [3]
  ΔΨm: −0.447
Reactive oxygen species; [3]
  ROS: 0.061
OXPHOS gene expression; [3]
  GE-HTS: 0.378
nuOXPHOS transcripts; [3]
  nucOX: 0.594
mtOXPHOS transcripts; [3]
  mitoOX: −0.136
Cytochrome c; [3]
  cyt c: 0.510
C2C12 myotubes; [3]
  Viability: 0.408
[2]; [3]
  MTT: 1.426

## polymyxin b sulfate
[1]; [5]
  ΔΨm: 0.738
Reactive oxygen species; [5]
  ROS: 0.342
OXPHOS gene expression; [5]
  GE-HTS: −0.382
nuOXPHOS transcripts; [5]
  nucOX: −0.349
mtOXPHOS transcripts; [5]
  mitoOX: −0.341
Cytochrome c; [5]
  cyt c: −0.323
C2C12 myotubes; [5]
  Viability: 0.819
[2]; [5]
  MTT: −0.522

## O=C(O[C@@H]1Cc2c(O)cc(O)cc2O[C@@H]1c1cc(O)c(O)c(O)c1-c1c([C@H]2Oc3cc(O)cc(O)c3C[C@H]2OC(=O)c2cc(O)c(O)c(O)c2)cc(O)c(O)c1O)c1cc(O)c(O)c(O)c1 [2′,2′-bisepigallocatechin digallate]
[1]; [7]
  ΔΨm: −1.132
Reactive oxygen species; [7]
  ROS: −0.130
OXPHOS gene expression; [7]
  GE-HTS: −0.865
nuOXPHOS transcripts; [7]
  nucOX: −0.836
mtOXPHOS transcripts; [7]
  mitoOX: −0.808
Cytochrome c; [7]
  cyt c: 0.616
C2C12 myotubes; [7]
  Viability: 0.851
[2]; [7]
  MTT: −0.826

## CC[C@@]1(O)C(=O)OCc2c1cc1n(c2=O)Cc2cc3cc(O)ccc3nc2-1 [10-hydroxycamtothecin]
[1]; [8]
  ΔΨm (composite Z-score): 0.725
Reactive oxygen species; [8]
  ROS (composite Z-score): −1.681
OXPHOS gene expression; [8]
  GE-HTS (composite Z-score): −1.137
nuOXPHOS transcripts; [8]
  nucOX (composite Z-score): −1.180
mtOXPHOS transcripts; [8]
  mitoOX (composite Z-score): −0.782
Cytochrome c; [8]
  cyt c (composite Z-score): −2.397
C2C12 myotubes; [8]
  Viability (composite Z-score): −1.466
[2]; [8]
  MTT (composite Z-score): −2.588

## O=C(CC[N+](=O)[O-])OC[C@H]1O[C@@H](O)[C@H](OC(=O)CC[N+](=O)[O-])[C@@H](OC(=O)CC[N+](=O)[O-])[C@@H]1OC(=O)CC[N+](=O)[O-] [endecaphyllin X]
[1]; [9]
  ΔΨm: 0.142
Reactive oxygen species; [9]
  ROS: −0.292
OXPHOS gene expression; [9]
  GE-HTS: −0.660
nuOXPHOS transcripts; [9]
  nucOX: −0.566
mtOXPHOS transcripts; [9]
  mitoOX: −0.741
Cytochrome c; [9]
  cyt c: −0.219
C2C12 myotubes; [9]
  Viability: 0.158
[2]; [9]
  MTT: −1.007

## C[C@@]12CCc3occc3[C@H]1CC[C@@]13C[C@@H](CC[C@H]12)[C@@](O)(CO)C3 [cafestol]
[1]; [6]
  ΔΨm: 1.283
Reactive oxygen species; [6]
  ROS: 0.832
OXPHOS gene expression; [6]
  GE-HTS: −0.833
nuOXPHOS transcripts; [6]
  nucOX: −0.385
mtOXPHOS transcripts; [6]
  mitoOX: −1.543
Cytochrome c; [6]
  cyt c: 1.374
C2C12 myotubes; [6]
  Viability: 0.025
[2]; [6]
  MTT: 1.124

## C=C(C)[C@H]1COc2cc3oc(=O)ccc3cc2O1 [obliquin]
[1]; [4]
  ΔΨm: 0.088
Reactive oxygen species; [4]
  ROS: 0.977
OXPHOS gene expression; [4]
  GE-HTS: −0.313
nuOXPHOS transcripts; [4]
  nucOX: −0.459
mtOXPHOS transcripts; [4]
  mitoOX: 0.105
Cytochrome c; [4]
  cyt c: −1.172
C2C12 myotubes; [4]
  Viability: 0.539
[2]; [4]
  MTT: −0.268

## 3,7-epoxycaryophyllan-6-one
[1]; [7]
  ΔΨm: −1.003
Reactive oxygen species; [7]
  ROS: 0.603
OXPHOS gene expression; [7]
  GE-HTS: −0.812
nuOXPHOS transcripts; [7]
  nucOX: −0.824
mtOXPHOS transcripts; [7]
  mitoOX: −0.595
Cytochrome c; [7]
  cyt c: 0.131
C2C12 myotubes; [7]
  Viability: 0.433
[2]; [7]
  MTT: −0.698

## CC1=CC2C(C(C)C)CCC(C)(O)C2CC1 (centres unmarked) [cadin-4-en-10-ol]
[1]; [7]
  ΔΨm: −0.297
Reactive oxygen species; [7]
  ROS: 0.180
OXPHOS gene expression; [7]
  GE-HTS: −0.610
nuOXPHOS transcripts; [7]
  nucOX: −0.244
mtOXPHOS transcripts; [7]
  mitoOX: −1.252
Cytochrome c; [7]
  cyt c: 0.328
C2C12 myotubes; [7]
  Viability: −0.101
[2]; [7]
  MTT: −0.041

## Oc1cccc2cccnc12 [oxyquinoline]
[1]
  ΔΨm: −0.867
Reactive oxygen species
  ROS: 0.684
OXPHOS gene expression
  GE-HTS: 0.534
nuOXPHOS transcripts
  nucOX: 0.526
mtOXPHOS transcripts
  mitoOX: 0.435
Cytochrome c
  cyt c: −0.121
C2C12 myotubes
  Viability: −1.140
[2]
  MTT: −0.815

## COC(=O)c1c(C)c2c(c(C)c1O)OC(=O)c1c(C)c(Cl)c(O)c(Cl)c1O2 [leoidin]
[1]; [6]
  ΔΨm: −1.352
Reactive oxygen species; [6]
  ROS: 1.481
OXPHOS gene expression; [6]
  GE-HTS: −0.611
nuOXPHOS transcripts; [6]
  nucOX: −0.523
mtOXPHOS transcripts; [6]
  mitoOX: −0.638
Cytochrome c; [6]
  cyt c: 0.341
C2C12 myotubes; [6]
  Viability: 0.035
[2]; [6]
  MTT: 0.994

## COC(=O)CCC(=O)O[C@H]1CC[C@@]2(C)[C@@H](CC[C@@H]3[C@@H]2C(=O)C(O)[C@]2(C)[C@@H]4[C@H](C[C@@H]32)O[C@]2(CC[C@@H](C)CO2)[C@H]4C)C1 (some centres unmarked)
[1]; [6]
  ΔΨm: −0.760
Reactive oxygen species; [6]
  ROS: 0.918
OXPHOS gene expression; [6]
  GE-HTS: −0.063
nuOXPHOS transcripts; [6]
  nucOX: 0.054
mtOXPHOS transcripts; [6]
  mitoOX: −0.217
Cytochrome c; [6]
  cyt c: −0.005
C2C12 myotubes; [6]
  Viability: −0.315
[2]; [6]
  MTT: −1.387
